Test results taken from patent US11993785B2, “Immersion deposition methods and compositions for use in the same” (Wake Forest University Health Sciences, priority 2018, dated 2024).

Test system: primary sarcoma organoids
Assay: CELLTITER-GLO 3D ATP assay of drug treated primary sarcoma organoids
Assay type: cell-based
Conditions: 3 days, after 7 days organoid culture
Experimental: The organoids were made using an immersion printing technique using a gelatin composition having a gelatin concentration of 10 mg/mL. To prepare the gelatin composition, gelatin was allowed to completely dissolve, and then the composition was cooled at 4° C. prior to use. The organoids were printed with a new bioprinter, BIO X™ available from CELLINK®, using a new type of printhead, a syringe pump printhead.
The resulting organoids were cultured for 7 days, and then subjected to various drug conditions in culture for 3 more days. Table 1 details the drug and concentration added to the standard culture media (high glucose DMEM supplemented with 10% fetal bovine serum, 1% L-glutamine, 1% penicillin/streptomycin). The organoids were then measured for viability using the CELLTITER-GLO® 3D ATP assay to measure ATP content via luminescence. The resulting signals, shown in FIG. 5, show a trend of organoid viability decreasing as drug concentration increased. Live/dead imaging corroborates the findings of the ATP assay.

COc1cccc2c1C(=O)c1c(O)c3c(c(O)c1C2=O)C[C@@](O)(C(=O)CO)C[C@@H]3O[C@H]1C[C@H](N)[C@H](O)[C@H](C)O1 [Doxorubicin]
AVG Signal (lum), ATP assay (1 nM drug in culture media): 5.13E+06 lum | AVG Signal (lum), ATP assay (100 nM drug in culture media): 2.62E+06 lum | AVG Signal (lum), ATP assay (10 μM drug in culture media): 1.12E+06 lum

Cc1ccc(NC(=O)c2ccc(CN3CCN(C)CC3)cc2)cc1Nc1nccc(-c2cccnc2)n1 [Imatinib]
AVG Signal (lum), ATP assay (5 μM drug in culture media): 9.16E+06 lum | AVG Signal (lum), ATP assay (50 μM drug in culture media): 6.56E+06 lum | AVG Signal (lum), ATP assay (500 μM drug in culture media): 1.88E+04 lum
